Source: patent US9700044B2, “Symmetrical marinopyrrole derivatives as potential antibiotic agents” (priority 2013, dated 2017)
In brackets after ≈: the same amount, converted by molar mass. Several values for one entry are separate records, joined by “and”; a condition that tells them apart may be missing. Equal values may be shown once. Read-outs that look alike come from different tables or passages of the source.

Legend:
Assay type in all cases: cell-based
[1] = test system: Moderately vancomycin-resistant Enterococci faecium with the VanA gene (WHO-3); test: MIC by agar dilution, VRE (WHO-3); settings: WHO-3
Description: (§1) A panel of multiple resistance Gram-positive and Gram-negative pathogens listed in Tables 1 and 2 was used to evaluate the antimicrobial activity of marinopyrrole derivatives (Chart 1) with vancomycin as a positive control. Except for those marked with WHO, all pathogens were isolated between 2008 and 2010 in hospitals located in Beijing; Guangzhou; Sichuan, Shandong and Jiangsu Province. Determination of the minimum inhibitory concentration (MIC) was done by the guidelines of the Clinical and Laboratory Standards Institute (Clinical and Laboratory Standards Institute, Performance standards for antimicrobial susceptibility testing, seventeenth informational supplement. 2007, 27, M100-S17). The susceptibility tests of a bacterial strain to a marinopyrrole derivative were performed by an agar dilution method. Briefly, each sterile petri dish contained a final volume of 15 mL comprising 1 mL of a marinopyrrole derivative and 14 mL of Mueller-Hinton broth. The concentrations of a marinopyrrole derivative are 128, 64, 32, 16, 8, 4, 2, 1, 0.5, 0.25, 0.125, 0.06, 0.03, 0.015 and 0.008 μg/mL. The petri dish containing the broth with different concentration of antibiotics was first inoculated with 10^5 CFU/mL (Denley A400, United Kingdom) and the culture was then incubated with shaking at 35-37° C. for 18-20 h. The potency of the compound was determined and expressed as minimum inhibitory concentration (MIC) in μg/mL. The MIC was determined as the lowest concentration of antibiotic that inhibited visible bacterial growth.

[2] = test system: Methicillin-resistant Staphylococcus aureus (MRSA); test: MIC by agar dilution, MRSA clinical isolates; settings: for MIC: MRSA, data from 8 isolates
Description: as §1

[3] = test system: Oxacillin-resistant Staphylococcus aureus (WHO-25); test: MIC by agar dilution, ORSA (WHO-25); settings: WHO-25
Description: as §1

[4] = test system: Methicillin-resistant Staphylococcus epidermidis (MRSE); test: MIC by agar dilution, MRSE clinical isolates; settings: for MIC: MRSE
Description: as §1

[5] = test system: Methicillin-resistant Staphylococcus aureus with the mec A gene and PBP2a (WHO-31); test: MIC by agar dilution, MRSA (WHO-31); settings: WHO-31
Description: as §1

[6] = test system: Methicillin-susceptible Staphylococcus aureus (MSSA); test: MIC by agar dilution, MSSA clinical isolates; settings: for MIC: MSSA, data from 8 isolates
Description: as §1

[7] = Enterococcus, Table 2, read-out: MIC
[8] = Staphylococcus aureus, Table 2, read-out: MIC
[9] = Staphylococcus epidermidis, Table 2, data from 4 isolates, read-out: MIC

MIC ([1]; Table 2) [µg/mL]	MIC ([2]; Table 2) [µg/mL]	MIC ([3]; Table 2) [µg/mL]	MIC ([4]; Table 2, data from 4 isolates) [µg/mL]	MIC ([5]; Table 2) [µg/mL]	MIC ([6]; Table 2) [µg/mL]	MIC [1, 7] [µg/mL]	MIC [2, 8] [µg/mL]	MIC [3, 8] [µg/mL]	MIC [4, 9] [µg/mL]	MIC [5, 8] [µg/mL]	MIC [6, 8] [µg/mL]	Compound	other results
4 (≈ 4.94 µM)	>64	32 (≈ 39.5 µM)	8 (≈ 9.87 µM)	>64	>64	–	–	–	–	–	–	CCOC(=O)CS(=O)(=O)c1ccc(C(=O)c2[nH]c(Cl)c(Cl)c2-n2c(C(=O)c3ccc(S(=O)(=O)CC(=O)OCC)cc3O)cc(Cl)c2Cl)c(O)c1 [Compound 28]	–
–	–	–	–	–	–	32 (≈ 46.4 µM)	> 64	> 64	32 to 64 (≈ 46.4 to 92.7 µM)	> 64	> 64	O=C(O)CSc1ccc(C(=O)c2[nH]c(Cl)c(Cl)c2-n2c(C(=O)c3ccc(SCC(=O)O)cc3O)cc(Cl)c2Cl)c(O)c1 [Compound 31]	–
–	–	–	–	–	–	64 (≈ 84.8 µM)	> 64	> 64	8 to 64 (≈ 10.6 to 84.8 µM)	> 64	> 64	O=C(O)CS(=O)(=O)c1ccc(C(=O)c2[nH]c(Cl)c(Cl)c2-n2c(C(=O)c3ccc(S(=O)(=O)CC(=O)O)cc3O)cc(Cl)c2Cl)c(O)c1 [Compound 32]	–
–	–	–	–	–	–	0.5 (≈ 0.774 µM)	0.125 to 0.25 (≈ 0.193 to 0.387 µM)	1 (≈ 1.55 µM)	< 0.008	1 (≈ 1.55 µM)	0.125 (≈ 0.193 µM)	O=C(c1ccc(C(F)(F)F)cc1O)c1[nH]c(Cl)c(Cl)c1-n1c(C(=O)c2ccc(C(F)(F)F)cc2O)cc(Cl)c1Cl [Compound 41, (4,4′,5,5′-tetrachloro-1′H-1,3′-bipyrrole-2,2′-diyl)bis((2-hydroxy-4-(trifluoromethyl)phenyl)methanone)]	MIC ([1]; Table 3): 0.5 µg/mL (≈ 0.774 µM); MIC ([2]; Table 3): 0.125 to 0.25 µg/mL; fold more potent than marinopyrrole A ([2]; against MRSA): 2-4 fold and 4 fold; fold more potent than vancomycin ([2]; against MRSA): 2-4 fold and 4-8 fold; MIC ([3]; Table 3): 1 µg/mL (≈ 1.55 µM); MIC ([4]; Staphylococcus epidermidis, Table 3, data from 4 isolates, read-out: MIC): < 0.008 µg/mL; MIC ([4]; Staphylococcus epidermidis, against MRSE, read-out: MIC): 0.008 µg/mL (≈ 0.0124 µM); fold more potent than marinopyrrole A ([4]; against MRSE): > 31 fold and 31 fold; fold more potent than vancomycin ([4]; against MRSE): > 62 fold and 63-125 fold; MIC ([5]; Table 3): 1 µg/mL (≈ 1.55 µM); MIC ([6]; Table 3): 0.125 µg/mL (≈ 0.193 µM); fold more potent than marinopyrrole A ([6]; against MSSA): 4 fold; fold more potent than vancomycin ([6]; against MSSA): 8 fold

More lines, now with the values behind:

Compound	MIC ([1]; Table 2) [µg/mL]	MIC ([2]; Table 2) [µg/mL]	MIC ([3]; Table 2) [µg/mL]	MIC ([4]; Table 2, data from 4 isolates) [µg/mL]	MIC ([5]; Table 2) [µg/mL]	MIC ([6]; Table 2) [µg/mL]	MIC [1, 7] [µg/mL]	MIC [2, 8] [µg/mL]	MIC [3, 8] [µg/mL]	MIC [4, 9] [µg/mL]	MIC [5, 8] [µg/mL]	MIC [6, 8] [µg/mL]	other results
O=C(c1ccc(SCc2ccccc2)cc1O)c1[nH]c(Cl)c(Cl)c1-n1c(C(=O)c2ccc(SCc3ccccc3)cc2O)cc(Cl)c1Cl [Compound 26, (4,4′,5,5′-Tetrachloro-1′H-1,3′-bipyrrole-2,2′-diyl)bis(((2-hydroxy-4-benzylthio)phenyl)methanone)]	16 (≈ 21.2 µM)	>64	>64	8 to 32	>64	>64	–	–	–	–	–	–	–
COc1ccc(CSc2ccc(C(=O)c3[nH]c(Cl)c(Cl)c3-n3c(C(=O)c4ccc(SCc5ccc(OC)cc5)cc4O)cc(Cl)c3Cl)c(O)c2)cc1 [Compound 27]	16 (≈ 19.6 µM)	>64	>64	8 to 64	>64	>64	–	–	–	–	–	–	–
O=C(c1ccc(S(=O)(=O)Cc2ccccc2)cc1O)c1[nH]c(Cl)c(Cl)c1-n1c(C(=O)c2ccc(S(=O)(=O)Cc3ccccc3)cc2O)cc(Cl)c1Cl [Compound 29, (4,4′,5,5′-Tetrachloro-1′H-1,3′-bipyrrole-2,2′-diyl)bis(((2-hydroxy-4-benzylsulfonyl)phenyl)methanone)]	8 (≈ 9.77 µM)	>64	32 (≈ 39.1 µM)	32 (≈ 39.1 µM)	64 (≈ 78.2 µM)	>64	–	–	–	–	–	–	–
COc1ccc(CS(=O)(=O)c2ccc(C(=O)c3[nH]c(Cl)c(Cl)c3-n3c(C(=O)c4ccc(S(=O)(=O)Cc5ccc(OC)cc5)cc4O)cc(Cl)c3Cl)c(O)c2)cc1 [Compound 30]	>64	>64	>64	2 to 16	>64	>64	–	–	–	–	–	–	–
